# Source: patent US7960380B2, “Non-anilinic derivatives of isothiazol-3(2H)-one 1,1-dioxides as liver X receptor modulators” (AstraZeneca AB, priority 2005, dated 2011)
# Columns and labels:
# [1] = molecular target: T1, human LXRalpha ligand binding domain (GAL4 fusion) (Homo sapiens, UniProt Q13133); experiment: Transactivation (reporter gene) assay in U2/OS cells (LXRalpha); type: cell-based; details: LXRα, GAL4-LXR LBD luciferase reporter
# T1 construct: human LXRalpha (amino acid 205-447); expressed in transfected cells; host or cells: U2/OS osteosarcoma cells (electroporated with pSGGAL-LXRalpha)
# T1 sequence (Q13133 205-447): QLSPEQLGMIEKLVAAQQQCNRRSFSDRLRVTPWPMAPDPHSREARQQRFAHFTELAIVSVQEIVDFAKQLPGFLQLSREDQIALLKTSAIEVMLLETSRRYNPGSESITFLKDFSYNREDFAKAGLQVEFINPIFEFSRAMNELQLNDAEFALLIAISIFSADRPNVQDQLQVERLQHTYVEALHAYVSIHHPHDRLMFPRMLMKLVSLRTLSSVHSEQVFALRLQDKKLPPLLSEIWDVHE
# Procedure: Expression vectors were prepared by inserting the ligand binding domain cDNA (complementary DNA) of human LXRalpha (amino acid 205-447) and LXRbeta (amino acid 216-461) in frame with, 3′ to the yeast GAL4 transcription factor DNA binding domain and the nuclear localization signal from the T-antigen of Polyoma Virus in the eucaryotic expression vector pSG5 (Stratagene). The resulting expression vectors pSGGAL-LXRalpha and pSGGAL-LXRbeta were used in cotransfection experiments together with the pGL3 luciferase reporter plasmid containing a minimal SV40 promoter (Promega) and five copies of the UAS GAL4 recognition site. 2.5 μg pSGGAL-LXRalpha or beta were mixed with 25 μg pGL3 5×UAS and 22.5 μg pBluscript (Stratagene) in 0.95 mL ice cold PBS containing approx. 4-9 milj. U2/OS osteosarcoma cells. After a five minute incubation on ice the cell/DNA mixture was electroporated in 0.4 cm cuvettes at 960 μF, 230 V using a BioRad electroporator and diluted to 0.32 milj cells/mL in complete DMEM [Dulbecco's Modified Eagle Medium w/o phenol red, (Gibco 11880-028) including 10% FBS (Foetal Bovine Serum), 1% PEST (Penicillin Streptomycin), 20 mM Hepes, 2 mM L-Glutamine and 0.36% Glucose Gibco 31966-021] medium. […] Luciferase activity was measured as Luminescence in the Wallac Victor reader after 15 min. incubation at room temperature. […]
# [2] = molecular target: T2, human LXRalpha Ligand Binding Domain (amino acid 205-447) (Homo sapiens, UniProt Q13133); experiment: Co-activator recruitment assay (LXRalpha); type: biochemical; details: LXRα; SRC-1 peptide recruitment, time-resolved fluorescence; read-out: EC50 for LXRα in the coactivator recruitment assay
# T2 construct: human LXRalpha (amino acid 205-447); made in house; host or cells: E. coli
# T2 sequence (Q13133 205-447): T1 sequence (Q13133 205-447)
# Source text: The Ligand Binding Domain (LBD) of human LXRalpha (amino acid 205-447) and LXRbeta (amino acid 216-461) was produced by recombinant techniques in E coli. A fragment of the human Steroid Receptor Co-Activator-1 (SRC-1) was produced as a synthetic peptide. An anti-6×His-antibody coupled with Europium (Eu^3+) was used to recognize the His-tag on the LXR-LBD and Allophycocyanin (APC) coupled to streptavidin was used to recognize the biotinylated SRC-1. Agonist binding to LXRalpha or LXRbeta enhances the affinity of LXR towards SRC-1 and thereby brings Eu^3+ and APC in close proximity. Eu^3+ is excited at 337 nm and emitts light at 620 nm. This emission, when in close proximity, excites APC to emit light at 665 nm.
# Compounds (10 mM) in DMSO were diluted (1/3) in DMSO in 10 concentrations. This dilution plates were further diluted in buffer {20 mM [Tris(hydroxymethyl)aminomethane] pH 7.5, 0.125% CHAPS {3-[(3-Cholamidopropyl)dimethylammonio]-1-propanesulfonate}, 2 mM DTT (Dithiothreitol) and 0.05% BSA (Bovine Serum Albumin)} in order to reduce DMSO concentration, 0.5 μl to 13.5 μl. To this, 6 μl assay mix was added, giving an maximal assay concentration of 83 μM, and the plates (384-well V-groove plates) were incubated at room temperature for 60 to 80 min. […] Time-resolved fluorescence readings were done in a Wallac Victor reader at 665 nm followed by reading at 615 nm. […]
EC50 [1],EC50 [2],SMILES
270 nM,–,"CCCCN1C(=O)C(NCCCOc2cccc(NC(C)=O)c2)=C(c2ccccc2)S1(=O)=O [Example 7, N-(3-{3-[(2-Butyl-1,1-dioxido-3-oxo-5-phenyl-2,3-dihydroisothiazol-4-yl)amino]propoxy}phenyl)acetamide]"
–,1420 nM,"CC(C)N1C(=O)C(NC2CCN(CCC#N)CC2)=C(c2ccccc2)S1(=O)=O [Example 10, 3-{4-[(2-Isopropyl-1,1-dioxido-3-oxo-5-phenyl-2,3-dihydroisothiazol-4-yl)amino]piperidin-1-yl}propanenitrile]"
–,580 nM,"CCCCCCNC1=C(c2ccccc2)S(=O)(=O)N(CCCC)C1=O [Example 6, 2-Butyl-4-(hexylamino)-5-phenylisothiazol-3(2H)-one 1,1-dioxide]"
1360 nM,–,"O=C1C(NCCCCc2ccccc2)=C(c2ccccc2)S(=O)(=O)N1C1CCCC1 [Example 2, 2-Cyclopentyl-5-phenyl-4-[(4-phenylbutyl)amino]isothiazol-3(2H)-one 1,1-dioxide]"
